# Experimental data: patent publication US20150359798A1, “PIPERAZINYL DERIVATIVE REDUCES HIGH-FAT DIET-INDUCED ACCUMULATION OF FAT IN THE LIVERS, […]” (priority 2011, published 2015)
# Assays:
# PKA = assay: Hepatic PKA expression (14-week experiment); format: in vivo, mice; details: drinking KMUP-1; protection and treatment groups
# ABCA1 = ABCA1 expression in HepG2 cells; format: cell-based
# Description: HepG2 cells were treated with various concentrations of drugs for 24 hours. Reactions were terminated by washing twice with cold PBS, and the cells were then harvested, Proteins in the whole-cell lysate were homogenized in an ice-cold lysis buffer and a protease inhibitor (Sigma-Aldrich, St. Louis, Mo., U.S.A.). The homogenate was centrifuged at 90, 000 g for 15 minutes at 4° C., and supernatant was recovered as the total cellular protein. Cytosolic and membrane fractions of HepG2 cells were prepared using a. CNM (Cytosol Nuclear Membrane) compartment protein extraction kit (BioChain Institute Inc., Hayward, Calif., U.S.A.) according to the manufacturer's instructions. All of the fractionated protein solutions were stored at −80° C. until analysis. To measure the expression levels of proteins by drugs, the total cell protein was extracted after incubation with treatments for 24 hours and then Western blotting analysis was performed as described previously.
# [1] = target: T1, Human recombinant HMG CoA reductase (Homo sapiens, UniProt P04035); assay: HMG CoA reductase activity, [14C]mevalonate formation; format: biochemical; details: 10 μM
# T1 construct: purchased Sigma-Aldrich (printed 'Sigma-Adrich') H7039; host or cells: E. coli
# Description: Human recombinant HMG CoA reductase expressed in E. coli (H7039, Sigma-Adrich, Mo, U.S.A.) was used. Human recombinant HMG-CoA reductase, examined by SDS-PAGE to be ≧90% in purity, 2-8 units/mg protein in activity and ˜76 kDa in molecular weight (H7039, Sigma-Adrich, St. Louis, Mo. U.S.A.), was used for determining the formation of [^14C]mevalonate. […] The reaction was initiated by the addition of 2.5 μM [^14C]HMG-CoA for another 20 minutes incubation period and terminated by further addition of 1 N HCl. An aliquot was removed by column and counted to determine the amount of [^14C]mevalonate formed (Ricera® Co. Ltd., Taipei, Taiwan).
# T1 sequence (P04035 426-888 limits assumed): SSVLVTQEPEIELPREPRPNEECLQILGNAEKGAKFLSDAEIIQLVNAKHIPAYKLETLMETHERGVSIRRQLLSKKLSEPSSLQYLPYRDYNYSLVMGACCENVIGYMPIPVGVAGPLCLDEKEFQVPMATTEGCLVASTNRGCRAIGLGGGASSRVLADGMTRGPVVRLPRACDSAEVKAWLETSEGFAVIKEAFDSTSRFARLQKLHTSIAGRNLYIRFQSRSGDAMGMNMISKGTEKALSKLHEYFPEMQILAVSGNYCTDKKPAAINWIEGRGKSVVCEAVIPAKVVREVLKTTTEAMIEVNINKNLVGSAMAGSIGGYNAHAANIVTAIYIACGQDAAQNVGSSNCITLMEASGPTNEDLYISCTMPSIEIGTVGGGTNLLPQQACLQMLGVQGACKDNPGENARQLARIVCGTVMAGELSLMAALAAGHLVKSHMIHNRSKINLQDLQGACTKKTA
compound,measurement,setting,value
"Cn1c(=O)c2c(ncn2CCN2CCN(c3ccccc3Cl)CC2)n(C)c1=O [KMUP-1, 7-[2-[4-(2-chlorophenyl)piperazinyl]ethyl]-1,3-dimethyl xanthine]",hepatic PKA expression,PKA,promote
same,expression of ABCA1,"ABCA1; HepG2, 10^−9-10^−5 M",increased
same,FPP- or GGPP-suppressed expression of ABCA1,"ABCA1; HepG2, KMUP-1 10^−9-10^−5 M with FPP or GGPP",reversed
same,ABCA1 expression (FIG. 24D),"ABCA1; HepG2, simvastatin, KMUP-1, Y27632 10^−5M, C3 exoenzyme",increased
same,[14C]mevalonate formation,[1],could not reduce
